Data set [1] deals with bovine serum albumin (BSA) (Bos taurus, UniProt P02769). The experiment in a line: Fluorescence labeling of BSA with TPE-SO3 in phosphate buffer. Particulars: BSA 5 μM, pH 7.0. Here is the method:
Fluorescence labeling was carried out by sequentially adding solutions of TPE-SO3 to 100 μL aliquots of BSA solutions. The mixtures were stirred for half an hour prior to taking their spectra.
The PL peak intensities of the BSA prepared with the lowest concentrations of TPE-SO3 were used as the reference and plots of the normalized fluorescence versus the concentrations of TPE-SO3 were obtained (FIG. 22). […] TPE-SO3 is represented by the following chemical formula: […]

A further data set deals with horse myoglobin (0 Cys) (Equus caballus, UniProt P68082). Briefly: Fluorescent labeling of Cys residues of protein with TPEMBR, SDS-PAGE. Particulars: 0.5 mM dye. On the procedure:
(§1) 2.5 μL Tris-HCl (1 M), 2.5 μL TCEP (20 mM), 5 μL BSA (1 mg/mL, 15 μM), and 30 μL urea (8 M in water) was added to a 1.5 mL Eppendorf tube and mixed well. The mixture was incubated at room temperature for 30 min to pre-reduce the disulfide bonds with TCEP. Then, 10 μL of the TPEMBR DMSO stock solution (2.5 mM 5×) was added to the system and made the final volume 50 μL. The reaction mixture was incubated for 3 hours at 50° C. in an Eppendorf Thermomixer. Then, samples were cooled either to room temperature for instant use or frozen for eventual use.
(§2) Specific labeling of Cys residues by TPEMBR was examined through the labeling of proteins with different Cys contents. BSA (35 Cys), yeast enolase (single Cys) and horse myoglobin (0 Cys) were labeled with 0.5 mM of TPEMBR, respectively. The corresponding fluorescent products were analyzed on gel. […] The results further confirmed the specificity of TPEMBR to Cys residue when the working concentration of 0.5 mM was used.

The nature of data set [2]: Quantum efficiency of TPEMBR before and after reaction with dithiothreitol (DTT). It is filed as physicochemical. The following applies: water/THF solution, water fraction 90 vol %. On the procedure:
In addition to the enhancement of fluorescence because of its AIE property, TPEMBR becomes even more emissive through the reaction between its bromomethyl group and thiol group of proteins, presumably due to the elimination of the internal heavy atom effect of bromide. […] TPEMBR and DTT in equal amount were dissolved in THF to give a concentration of 10 μM for each component. The mixture was then incubated at room temperature overnight. Photoluminescence intensity and UV absorption of TPEMBR were measured in THF/water mixtures with a water fraction of 90 vol % before and after reacting with DTT. As shown in FIGS. 12a and 12b, the quantum efficiency of TPEMBR in the water/THF solution with a water fraction of 90 vol % was approximately 3 times higher after reacting with DTT.

Data set [3] is described as follows: Fluorescence quantum efficiency in the solid state. In kind it is physicochemical. From the text:
(§3) Tetrahydrofuran (THF; Labscan) was distilled under nitrogen from sodium benzophenone ketyl immediately prior to use. Acrylamide was purchased from Bio-Rad. Aminoallyl-dUTP (aa-dUTP), dNTPs, DNase I (RNase-free), DNA Polymerase I, Klenow Fragment exo-, Random Hexamer Primer, Long PCR Enzyme Mix and GeneJET™ PCR Purification Kit, GeneRuler™ 100 bp Plus DNA Ladder (ready-to-use, 100-3000 bp), 6×DNA Loading Dye were purchased from Fermentas (Thermo Scientific). Deep VentR™ exo-DNA Polymerase was purchased from New England Biolabs (NEB). Synthesized oligonucleotides (primers) were purchased from Tech Drogon Limited. GelRed™ Nucleic Acid Gel Stain (10000× in water) was purchased from Biotium. Other chemicals, reagents and solvents were all purchased from Aldrich or Invitrogen. ^1H and ^13C NMR spectra were measured on a Bruker ARX 400 NMR spectrometer using CDCl3 as solvent. High-resolution mass spectra (HRMS) were taken on a Finnigan TSQ 7000 triple quadrupole spectrometer in a MALDI-TOF mode. UV spectra were measured on a Milton Roy Spectronic 3000 Array spectrophotometer. Fluorescence (FL) spectra were recorded on a Perkin-Elmer LS 55 spectrofluorometer. FL quantum yields (ΦF) of amorphous powders of siloles were measured using C-701 Time-Resolved Spectrofluorometer with the integrating sphere as accessory.

Data set [4] is described as follows: Photoluminescence in THF/water mixtures with different water fractions (aggregation induced emission). In kind it is physicochemical. The following applies: water/THF solution, water fraction 90 vol %.
Text: The AIE of TPENCS is illustrated in FIG. 1. […] With water content ranging from 0-70%, the fluorescence intensity remained at a very low level. When the water concentration was in the 80-90 vol % range, a rapid and dramatic increase of the fluorescence intensity with increasing water content was observed (FIG. 1b). The PL intensity of TPENCS in the water/THF solution with a water fraction of 90 vol % was approximately 50-fold higher than that in the mixture with 70% water. The quantum efficiency of TPENCS was 52.2% in the solid state.
Similar to other AIE active molecules, TPEMBR only gave weak emission in good solvents such as THF. […] To quantify the effect of water content on the degree of fluorescent emission enhancement, the photoluminescence intensity of TPEMBR was measured where the fraction of water was increased from 0 to 90 vol %. With the water content in the range of 0-70%, the fluorescent intensity remained at a very low level. With the water fraction reaching the 80-90 vol % range, a rapid and dramatic increase of the fluorescent intensity was observed (FIG. 9b). The photoluminescence intensity of TPEMBR in the water/THF solution with a water fraction of 90 vol % was approximately 50-fold stronger than that in the mixture with 70% water. In the solid state, the quantum efficiency of TPEMBR was determined to be 31.7%.
The AIE of SITC is illustrated in FIGS. 17a and 17b. The wavelength at maximum absorption of SITC was at 363 nm and the emission maximum was at 490 nm. […] To quantify the effect of water content on the elevation of the fluorescent emission, the photoluminescence intensity of SITC was measured with concentration of water increasing from 0 to 90 vol %. With water content ranging from 0-70%, the fluorescent intensity remained at a very low level. When the water concentration was in the 80-95 vol % range, a rapid and dramatic increase of the fluorescent intensity with increasing water content was observed (FIG. 17b). The photoluminescence intensity of SITC in the water/THF solution with a water fraction of 95 vol % was approximately 50-fold higher than that in the mixture with 70% water. The quantum efficiency of SITC was 45.8% in the solid state.
as §3
Structure of dye is confirmed by standard spectroscopic methods (FIGS. 23, 26a, and 27a). In order to confirm TPEITC is AIE-active, we investigated its fluorescence in THF/water mixtures with different water fractions. […] TPEITC molecules with hydrophobic aromatic cores precipitated and became aggregate in the nonsolvent mixture. Aggregation blocks the nonradiative relaxation channels and populates the radiative decay, thus resulting in high luminescence. […]

The next data set concerns the target BSA (35 Cys) (Bos taurus, UniProt P02769). Briefly: Fluorescent labeling of Cys residues of protein with TPEMBR, SDS-PAGE. Also on record: species or system bovine. On the procedure: as §1
In order to ensure that the Cys residues were sufficiently labeled with TPEMBR, a longer reaction time (usually overnight) at or below room temperature was required. Alternatively, the reaction time could be reduced if labeling was carried out at 50° C. To verify the time-dependence of labeling efficiency, bovine serum albumin (BSA) samples were labeled with TPEMBR for different times ranging from 10 min to 4 h and analyzed by SDS-PAGE. The fluorescence intensity of the labeled BSA increased as the reaction time was extended. The maximum intensity under specific labeling conditions was observed after 3 h and remained unchanged even with an additional 1 h of reaction time (FIGS. 11a and 11b). […] The time-dependent labeling effect provides a way to determine the desirable DOL according to different applications by simply controlling the labeling time. Meanwhile, a lower temperature labeling process with a longer reaction time could be a better choice to obtain fluorescent proteins while maintaining their native structures.
BSA samples were subjected to labeling with different dye concentrations. The SDS-PAGE fluorescence intensity of labeled BSA increased with increasing dye concentration. […] Further increasing the dye concentration could give higher fluorescence intensity due to nonspecific labeling. Clearly, the DOL of protein samples can be controlled by varying the dye concentration.
as §2
BSA was labeled by each dye with a series of varying dye/thiol ratios. After the electrophoresis, the gel fluorescent image was taken under UV excitation and the fluorescence intensity was obtained from three independent experiments. Fluorescence intensities normalized with the sample with the lowest dye concentration are plotted versus the dye/thiol ratio (FIG. 16). […] This self-quenching effect is inevitable for self-quenching dyes such as 5-BMF and limits these dyes' application on quantification of proteins. In contrast, detection and quantification of proteins with high contents of Cys can be easily achieved by using AIE active molecules such as TPEMBR.

Molecules are shown by their SMILES.

BSA (35 Cys), sequence (P02769 25-607): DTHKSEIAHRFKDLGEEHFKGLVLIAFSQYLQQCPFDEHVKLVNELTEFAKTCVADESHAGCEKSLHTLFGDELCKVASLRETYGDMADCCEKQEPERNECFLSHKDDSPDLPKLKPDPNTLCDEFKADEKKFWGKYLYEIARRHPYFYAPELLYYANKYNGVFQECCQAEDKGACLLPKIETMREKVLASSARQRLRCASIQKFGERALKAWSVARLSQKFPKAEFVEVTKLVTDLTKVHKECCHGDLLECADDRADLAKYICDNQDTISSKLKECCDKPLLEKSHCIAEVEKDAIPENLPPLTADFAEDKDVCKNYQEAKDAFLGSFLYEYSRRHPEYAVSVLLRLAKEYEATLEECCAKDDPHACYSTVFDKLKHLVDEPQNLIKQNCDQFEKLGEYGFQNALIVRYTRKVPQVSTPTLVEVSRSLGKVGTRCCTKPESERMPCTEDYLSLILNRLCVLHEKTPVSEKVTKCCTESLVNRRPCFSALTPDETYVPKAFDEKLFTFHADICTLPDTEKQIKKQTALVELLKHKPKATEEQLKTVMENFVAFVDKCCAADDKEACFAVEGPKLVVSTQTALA
bovine serum albumin (BSA), sequence (P02769 25-607): as above
horse myoglobin (0 Cys), sequence (P68082 whole entry): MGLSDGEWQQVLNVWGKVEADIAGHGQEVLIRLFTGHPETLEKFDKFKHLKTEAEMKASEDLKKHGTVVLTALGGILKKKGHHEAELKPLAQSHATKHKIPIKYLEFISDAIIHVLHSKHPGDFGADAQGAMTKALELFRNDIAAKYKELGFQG

As to `O=S(=O)([O-])CCCOc1ccc(C(=C(c2ccccc2)c2ccc(OCCCS(=O)(=O)[O-])cc2)c2ccccc2)cc1.[Na+].[Na+]` (mixture of isomers) [TPE-SO3], the “fluorescence intensity of labeled BSA versus dye concentration” value in data set [1] was “increased continuously”.
In the case of `BrCc1ccc(C(=C(c2ccccc2)c2ccccc2)c2ccccc2)cc1` [TPEMBR], the figures for the “emission of labeled protein on gel” value at horse myoglobin (0 Cys) and on BSA (35 Cys) (0.5 mM dye) were “no fluorescence at all” and “much higher emission than yeast enolase”, respectively. Further, in data set [2], the “quantum efficiency after reacting with DTT relative to before” value is given as “approximately 3 times”. Moreover, the quantum efficiency in data set [3] came to 31.7%. Moreover, the “PL intensity relative to the mixture with 70% water” value in data set [4] is listed as “approximately 50 fold”. Moreover, the “dye concentration at which maximum intensity was reached” value on BSA (35 Cys) (SDS-PAGE fluorescence intensity of labeled BSA) was no less than 0.5 mM. Also, the “labeling time to maximum fluorescence intensity” value at BSA (35 Cys) (labeling at 50° C., 10 min to 4 h) is reported as 3 h. Further, the “self-quenching effect versus dye/thiol ratio” value at BSA (35 Cys) (series of dye/thiol ratios) is recorded as “kept on increasing”.

Values taken from patent publication US9618453B2, “Aggregation induced emission of fluorescent bioprobes and methods of using the same” (THE HONG KONG UNIVERSITY OF SCIENCE AND TECHNOLOGY, priority 2011, dated 2017).
